This is an account of results in patent EP0571390B1, “THE DELAY, PREVENTION AND/OR REVERSAL OF CELL SENESCENCE” (priority 1990, dated 1992).

Test [1] relates to RR cells (human foreskin fibroblasts). Put plainly: Growth and lifespan of RR cells passaged in medium with carnosine. It counts as cell-based. The following applies: for fibroblast morphology: after many population doublings; for time still growing: continuous. On the procedure:
(§1) Cells were grown in Dulbecco's modification of Eagles' Minimal Essential Medium, with 10% fetal calf serum. When cells became confluent and ceased division, they were harvested with trypsin - versene, and dispersed to form a suspension of single cells which was counted with a Coulter Counter. Depending on the cell yield the culture was split in a ratio of 1:2, 1:4, or 1:8. These split ratios correspond approximately to one, two or three cell population doublings when the new cultures become confluent. The exact number of population doublings is calculated from the cell yield at each sub-culture.
Initially, human foreskin fibroblasts were obtained from Dr Roger Reddel (Children's Medical Research Foundation) at passage 5, flasks were set up with differing concentrations of carnosine (10mM, 20mM, 30mM and 50mM) together with control cultures. Each of the cultures were passaged in the same medium.

The subject of test [2] is MRC-5 cells. Put plainly: Longevity experiment, MRC-5 cells grown continuously in medium supplemented with carnosine. As to conditions: for longevity: continuous, controls ceased growth at 57 and 61 PDs. The test is classed as cell-based, human. On the procedure: as §1
MRC-5 is a very well characterised fibroblast strain derived from foetal lung tissue. Early passage cultures were obtained from the National Institute for Biological Standards and Control, South Mimms, Herts, U.K. Longevity experiments were set up using normal medium and medium supplemented with 20 and 30mM carnosine (medium was the same as for RR cells above). […] The control cells became senescent at the expected time, namely after about 50 - 55 PDs, and they ceased growth at 57 and 61 PDs. […] It should be noted that the PD level is a logarithmic measure of growth, so an increase of 10 PDs represents an increase in cell mass of 2^10, or x 1,000.

Test [3] has as its system MRC-5 cells. Put plainly: Transfer of senescent MRC-5 cells from normal medium to carnosine medium at PD level 55. It counts as cell-based, human. On the procedure:
as §1
Remarkably, these cells are continuing to grow after 400 days (Figure 8), whereas cells grown continuously in carnosine died out after 139 days. Thus it appears that transfer of senescent cells to carnosine can reverse the senescent phenotype and allow extended growth of cells with a near normal morphology (Figures 10, 11 and 12).

Where [4] appears, read: transferred at PD level 55 to 20mM carnosine.
[5] abbreviates: transferred at PD level 55 to 30mM carnosine.

Take `NCCC(=O)N[C@@H](Cc1c[nH]cn1)C(=O)O` [carnosine, β-alanyl-L-histidine]: the growth rate result in test [1] (10mM carnosine added to standard medium, versus control cultures) is recorded as “grew as rapidly as control cultures”; in test [1] (20mM carnosine added to standard medium, versus control cultures) it was “grew as rapidly as control cultures”; in test [1] (30mM carnosine), “some reduction in growth rate”; in test [1] (50mM carnosine), “a great reduction”. For the same compound, the fibroblast morphology entry in test [1] (30mM carnosine) and in test [1] (50mM carnosine) was “retained their characteristic fibroblast morphology” in each case. The time still growing in test [1] (30mM carnosine) and in test [1] (50mM carnosine) was above 500 days in each case. The “PD level of cells growing continuously” value in the test with MRC-5 cells [2] (20mM carnosine (Figure 7)) is given as 67 PD. Besides, the “growth rate in the initial stage” value with MRC-5 cells [2] (20mM carnosine versus normal medium) and with MRC-5 cells [2] (30mM carnosine versus normal medium) was “little difference in growth rate” in each case. Further, the longevity result with MRC-5 cells [2] (20mM carnosine) and in the test on MRC-5 cells [2] (30mM carnosine) was “very significantly increased longevity” each time. Besides, the “number of cells per flask” value with MRC-5 cells [2] (as the end of the culture lifespan approaches) is recorded as “significantly increases the number of cells per flask”. Besides, the “morphological features of senescence” value in the test with MRC-5 cells [2] (carnosine medium, Figure 7 compared with Figure 6) was “delayed the normal morphological features of senescence”. Further, the “time until cells died out” value in the test on MRC-5 cells [2] (cells grown continuously in carnosine) is 139 days. The “PDs reached after transfer” value in the test on MRC-5 cells [3] (20mM carnosine, 146 days after transfer (Figure 11)) is on record as 64 PDs; with MRC-5 cells [3] (30mM carnosine, 146 days after transfer (Figure 12)), 63 PDs. Moreover, the “effect in increasing cell yield” value in the test on MRC-5 cells [3] (cells transferred from normal medium to 30mM carnosine medium (Figure 9)) was “particularly striking”. For the same compound, the phenotype after transfer result in the test with MRC-5 cells [3] (setting [4]) is recorded as “continued to grow slowly, but with a rejuvenated phenotype”; in the test with MRC-5 cells [3] (setting [5]) it was “continued to grow slowly, but with a rejuvenated phenotype”. For the same compound, the “time continuing to grow” value in the test with MRC-5 cells [3] (setting [4]) and in the test with MRC-5 cells [3] (setting [5]) was above 400 days throughout.
